Common to all, as to assay type: cell-based
Test [1] deals with T1, BaF3 TELJAK2 cells (BafT_J2) (Homo sapiens, UniProt O60674).
T1 construct: fused on or other part: TEL (ETV6) N-terminal part, coding nucleotides 1-487, serves as the oligomerising partner; It is fused through a Sal I site to the JAK2 kinase domain and expressed from pTRE2 in BaF3 cells bearing pTET-off; P41212 (Transcription factor ETV6)
Kind of test: Cellular screening, BaF3 TEL:JAK2 cells, Alamar Blue. The settings on record: 40 hr, read-out: BafT_J2 IC50_nM. The procedure, abridged: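 Tet-off BaF3 cells carrying a TEL (nt 1-487)–JAK2 kinase-domain fusion, grown factor-independently in DMEM with 10% Tet-approved FBS without WEHI 3B medium. Compounds were diluted to 20 μM in screening plates, and cells (50,000–200,000 cell/mL at 1.1×) were incubated 40 hr at 37 °C, 5% CO2. Alamar Blue was then added for 4-6 hours; read at 544 nm.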
Background: Resazurin is reduced to fluorescent resorufin, in cell work by metabolically active cells.

Test [2] deals with CTLL2. Description: Cellular screening, CTLL2 cells, Alamar Blue. The following applies: Mus musculus, CTLL-2, read-out: CTLL2 IC50_nM. The method in brief: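 Viability is read with Alamar Blue at 544 nm, the dye added for the final 4-6 hours. Compounds were incubated for 40 hr with CTLL2 cells taken from late-log-phase culture, at 37° C in 5% CO2.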
Test [3] has as its target T2, BaF3 TELJAK3 cells (Homo sapiens, UniProt P52333).
T2 construct: fused on or other part: TEL (ETV6) N-terminal part, coding nucleotides 1-487, serves as the oligomerising partner; It is fused through a Sal I site to the JAK3 kinase domain and expressed from pTRE2 in BaF3 cells bearing pTET-off; P41212 (Transcription factor ETV6)
T2 sequence (P52333 1-1124): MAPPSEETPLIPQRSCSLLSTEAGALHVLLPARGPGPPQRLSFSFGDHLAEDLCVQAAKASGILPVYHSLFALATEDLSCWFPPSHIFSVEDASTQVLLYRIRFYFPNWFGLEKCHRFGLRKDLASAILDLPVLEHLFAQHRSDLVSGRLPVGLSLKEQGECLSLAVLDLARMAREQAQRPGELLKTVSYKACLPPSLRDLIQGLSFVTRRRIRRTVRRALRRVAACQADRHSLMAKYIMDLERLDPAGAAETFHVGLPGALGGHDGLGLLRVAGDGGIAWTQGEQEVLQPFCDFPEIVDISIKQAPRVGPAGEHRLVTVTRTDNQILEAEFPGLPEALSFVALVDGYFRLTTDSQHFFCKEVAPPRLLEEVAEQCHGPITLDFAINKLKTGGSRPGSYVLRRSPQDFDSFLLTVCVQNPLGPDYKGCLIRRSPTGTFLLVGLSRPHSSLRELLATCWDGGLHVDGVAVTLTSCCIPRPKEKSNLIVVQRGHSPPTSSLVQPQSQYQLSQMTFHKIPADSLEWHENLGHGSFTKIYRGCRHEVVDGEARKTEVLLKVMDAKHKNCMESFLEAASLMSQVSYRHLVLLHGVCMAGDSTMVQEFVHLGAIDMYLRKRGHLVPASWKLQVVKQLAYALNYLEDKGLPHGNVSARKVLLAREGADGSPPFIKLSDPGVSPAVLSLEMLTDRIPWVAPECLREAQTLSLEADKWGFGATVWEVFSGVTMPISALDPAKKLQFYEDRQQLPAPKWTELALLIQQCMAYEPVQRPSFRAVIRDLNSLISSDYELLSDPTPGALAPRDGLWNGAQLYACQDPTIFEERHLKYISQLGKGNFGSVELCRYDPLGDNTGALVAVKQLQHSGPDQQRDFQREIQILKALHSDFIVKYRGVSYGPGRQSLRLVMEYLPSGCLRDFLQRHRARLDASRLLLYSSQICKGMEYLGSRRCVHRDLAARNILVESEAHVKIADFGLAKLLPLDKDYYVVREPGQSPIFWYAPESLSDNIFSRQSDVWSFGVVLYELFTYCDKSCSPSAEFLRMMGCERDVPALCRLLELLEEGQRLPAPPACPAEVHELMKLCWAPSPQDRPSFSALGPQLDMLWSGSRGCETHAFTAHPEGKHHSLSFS
Description: Cellular screening, BaF3 TEL:JAK3 cells, Alamar Blue. The settings on record: 40 hr, read-out: BafT_J3 IC50_nM. The method in brief: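 Alamar Blue signal at 544 nm, developed for 4–6 h, measured viability after 40 h of compound treatment at 37 °C, 5% CO2. Cells were growth-factor-independent BaF3 lines transfected with a TEL/JAK3 kinase-domain fusion under tet-off control. They were cultured in DMEM, 10% Tet-approved FBS, lacking WEHI 3B conditioned medium.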

T1 sequence (O60674 whole entry, change not shown, the tested form may be a part): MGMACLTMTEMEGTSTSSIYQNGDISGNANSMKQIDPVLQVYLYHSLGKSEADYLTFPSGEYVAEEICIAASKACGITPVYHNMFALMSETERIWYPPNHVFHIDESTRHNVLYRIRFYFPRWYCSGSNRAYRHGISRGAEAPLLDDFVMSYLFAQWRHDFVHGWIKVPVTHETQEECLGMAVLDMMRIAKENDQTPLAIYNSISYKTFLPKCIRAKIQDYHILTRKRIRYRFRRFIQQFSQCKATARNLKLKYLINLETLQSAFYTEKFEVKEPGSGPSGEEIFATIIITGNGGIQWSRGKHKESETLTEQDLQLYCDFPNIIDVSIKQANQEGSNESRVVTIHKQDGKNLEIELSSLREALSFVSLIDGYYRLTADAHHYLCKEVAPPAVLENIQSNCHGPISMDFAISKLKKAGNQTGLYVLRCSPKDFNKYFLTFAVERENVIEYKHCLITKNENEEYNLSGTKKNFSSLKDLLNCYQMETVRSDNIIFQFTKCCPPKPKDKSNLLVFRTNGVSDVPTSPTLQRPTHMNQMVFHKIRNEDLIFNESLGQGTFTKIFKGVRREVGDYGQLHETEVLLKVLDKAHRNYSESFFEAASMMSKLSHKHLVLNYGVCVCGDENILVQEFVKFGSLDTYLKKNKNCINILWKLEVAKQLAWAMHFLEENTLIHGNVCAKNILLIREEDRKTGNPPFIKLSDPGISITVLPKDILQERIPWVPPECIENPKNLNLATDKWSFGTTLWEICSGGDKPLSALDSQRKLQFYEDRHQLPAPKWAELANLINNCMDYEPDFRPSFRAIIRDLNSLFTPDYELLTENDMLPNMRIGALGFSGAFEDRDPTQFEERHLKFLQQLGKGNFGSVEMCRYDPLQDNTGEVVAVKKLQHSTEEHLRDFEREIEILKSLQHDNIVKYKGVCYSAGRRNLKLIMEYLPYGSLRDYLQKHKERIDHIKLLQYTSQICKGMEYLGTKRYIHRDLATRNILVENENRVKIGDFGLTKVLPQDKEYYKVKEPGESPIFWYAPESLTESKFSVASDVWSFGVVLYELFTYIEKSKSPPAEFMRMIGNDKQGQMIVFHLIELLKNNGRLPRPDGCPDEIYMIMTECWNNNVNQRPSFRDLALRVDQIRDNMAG

For the molecule `CCOC(=O)/C=C\C(=O)Nc1ccc(Sc2nc(Nc3ccc(N4CCOCC4)cc3)ncc2C)cc1` [Compound 388, (Z)-ethyl 4-(4-(5-methyl-2-(4-morpholinophenylao)pyrimidin-4-ylthio)phenylao)-4-oxobut-2-enoate], the GI50 in test [1] and in test [3] was < 5 µM throughout. The IC50 in test [2] is < 5 µM.

For the molecule `C=CC(=O)Nc1ccc(Sc2ccnc(Nc3ccc4c(c3)OCO4)n2)cc1` [Compound 393, N-(4-(2-(benzo[d][1,3]dioxol-5-ylao)pyrimidin-4-ylthio)phenyl)acrylamide], the GI50 in test [1] was < 20 µM; in test [3], < 1 µM. Further, the IC50 in test [2] was < 5 µM.

Regarding `CC(=O)Nc1ccc(Sc2ccnc(Nc3ccc(N4CCC(N5CCCC5)CC4)cc3)n2)cc1` [Compound 86, N-(4-(2-(4-(4-(pyrrolidin-1-yl)piperidin-1-yl)phenylao)pyrimidin-4-ylthio)phenyl)acetamide], the GI50 in test [1] was < 20 µM; in test [3] it was < 5 µM. Besides, the IC50 in test [2] was < 5 µM.

As for `CNC(=O)CCC(=O)Nc1ccc(Sc2nc(Nc3ccc(N4CCOCC4)cc3)ncc2C)cc1` [Compound 386, N1-methyl-N4-(4-(5-methyl-2-(4-morpholinophenylao)pyrimidin-4-ylthio)phenyl)succinamide], the GI50 in test [1] and in test [3] was > 20 µM in each case. Further, the IC50 in test [2] is > 20 µM.

As for `N#CCC(=O)Nc1ccc(Sc2ccnc(Nc3ccc(N4CCC(N5CCCC5)CC4)cc3)n2)cc1` [Compound 88, 2-cyano-N-(4-(2-(4-(4-(pyrrolidin-1-yl)piperidin-1-yl)phenylao)pyrimidin-4-ylthio)phenyl)acetamide], the GI50 in test [1] and in test [3] was < 5 µM throughout. In addition, the IC50 in test [2] was < 20 µM.

For the molecule `C=CC(=O)Nc1ccc(Sc2ccnc(Nc3ccc(S(=O)(=O)NCc4ccccc4)cc3)n2)cc1` [Compound 368, N-(4-(2-(4-(N-benzylsulfamoyl)phenylao)pyrimidin-4-ylthio)phenyl)acrylamide], the GI50 in test [1] is < 20 µM; in test [3] it was < 5 µM. Moreover, the IC50 in test [2] is < 5 µM.

Take `C=CC(=O)Nc1ccc(Sc2ccnc(Nc3cccc(OC)c3)n2)cc1` [Compound 105, N-(4-(2-(3-methoxyphenylao)pyrimidin-4-ylthio)phenyl)acrylamide]: the GI50 in test [1] is < 20 µM; in test [3] it was < 1 µM. Besides, in test [2], the IC50 is < 20 µM.

In the case of `CC#CC(=O)Nc1ccc(Sc2nc(Nc3ccc(N4CCOCC4)cc3)ncc2C)cc1` [Compound 125, N-(4-(5-methyl-2-(4-morpholinophenylao)pyrimidin-4-ylthio)phenyl)but-2-ynamide], the values for the GI50 in test [1] and in test [3] were < 20 µM and < 5 µM, respectively. For the same molecule, the IC50 in test [2] was < 5 µM.

For the molecule `Cc1cnc(Nc2ccc(N3CCOCC3)cc2)nc1Sc1ccc(NC(=O)CCC(=O)O)cc1` [Compound 383, 4-(4-(5-methyl-2-(4-morpholinophenylao)pyrimidin-4-ylthio)phenylao)-4-oxobutanoic acid], the GI50 in test [1] was < 20 µM; in test [3], > 20 µM. In addition, the IC50 in test [2] was < 20 µM.

With `CC#CC(=O)Nc1ccc(Sc2ccnc(Nc3ccc(N4CCOCC4)cc3)n2)cc1` [Compound 104, N-(4-(2-(4-morpholinophenylao)pyrimidin-4-ylthio)phenyl)but-2-ynamide], the GI50 is > 20 µM in test [1] and < 5 µM in test [3]. Also, in test [2], the IC50 is < 5 µM.

In the case of `C=CC(=O)Nc1ccc(Sc2ccnc(Nc3ccc(C#N)cc3)n2)cc1` [Compound 131, N-(4-(2-(4-cyanophenylao)pyrimidin-4-ylthio)phenyl)acrylamide], the values for the GI50 in test [1] and in test [3] were < 20 µM and < 5 µM, respectively. Besides, the IC50 in test [2] was < 20 µM.

As for `CCC(=O)Nc1ccc(Sc2nc(Nc3ccc(N4CCOCC4)cc3)ncc2Cl)cc1` [Compound 347, N-(4-(5-chloro-2-(4-morpholinophenylao)pyrimidin-4-ylthio)phenyl)propionamide], the GI50 in test [1] was > 20 µM; in test [3], < 1 µM. The IC50 in test [2] was < 5 µM.

With `C=CC(=O)Nc1ccc(Sc2nc(Nc3cccc(OCCCO)c3)ncc2C)cc1` [Compound 301, N-(4-(2-(3-(3-hydroxypropoxy)phenylao)-5-methylpyrimidin-4-ylthio)phenyl)acrylamide], the results for the GI50 in test [1] and in test [3] were < 20 µM and < 1 µM, respectively. Moreover, in test [2], the IC50 is < 1 µM.

With `C=CC(=O)Nc1ccc(Sc2ccnc(Nc3ccc(S(N)(=O)=O)cc3)n2)cc1` [Compound 352, N-(4-(2-(4-sulfamoylphenylao)pyrimidin-4-ylthio)phenyl)acrylamide], the GI50 in test [1] and in test [3] was < 20 µM in each case. The IC50 in test [2] was < 20 µM.

Take `C=CC(=O)Nc1ccc(Sc2ccnc(Nc3ccc(S(=O)(=O)N4CCOCC4)c(OC)c3)n2)cc1` [Compound 373, N-(4-(2-(3-methoxy-4-(morpholinosulfonyl)phenylao)pyrimidin-4-ylthio)phenyl)acrylamide]: the GI50 in test [1] and in test [3] was < 5 µM each time. Besides, the IC50 in test [2] is < 5 µM.

Consider `O=C(CCl)Nc1cccc(Sc2ccnc(Nc3ccc(N4CCOCC4)cc3)n2)c1` [Compound 332, 2-chloro-N-(3-(2-(4-morpholinophenylao)pyrimidin-4-ylthio)phenyl)acetamide], for which the GI50 was < 5 µM in test [1] and < 1 µM in test [3]. In addition, the IC50 in test [2] is < 5 µM.

For the molecule `C=CC(=O)Nc1ccc(Sc2ccnc(Nc3ccc(F)c(C#N)c3)n2)cc1` [Compound 354, N-(4-(2-(3-cyano-4-fluorophenylao)pyrimidin-4-ylthio)phenyl)acrylamide], the GI50 in test [1] and in test [3] was < 20 µM throughout. Moreover, in test [2], the IC50 is < 20 µM.

Take `Nc1ccc(Sc2nc(Nc3ccc(N4CCOCC4)cc3)ncc2Cl)cc1` [Compound 318, 4-(4-aophenylthio)-5-chloro-N-(4-morpholinophenyl)pyrimidin-2-ae]: the GI50 in test [1] and in test [3] was > 20 µM each time. Also, in test [2], the IC50 is < 20 µM.

As for `C=CC(=O)Nc1ccc(Sc2nc(Nc3ccc(N4CCOCC4)cc3)ncc2Cl)cc1` [Compound 315, N-(4-(5-chloro-2-(4-morpholinophenylao)pyrimidin-4-ylthio)phenyl)acrylmide], the values for the GI50 in test [1] and in test [3] were > 20 µM and < 1 µM, respectively. The IC50 in test [2] is < 1 µM.

For the molecule `Cc1cnc(Nc2ccc(N3CCOCC3)cc2)nc1Sc1ccc(NC(=O)/C=C/C(=O)O)cc1` [Compound 387, (E)-4-(4-(5-methyl-2-(4-morpholinophenylao)pyrimidin-4-ylthio)phenylao)-4-oxobut-2-enoic acid], the GI50 in test [1] and in test [3] was > 20 µM in each case. The IC50 in test [2] was > 20 µM.

With `Cc1cnc(Nc2ccc(N3CCOCC3)cc2)nc1Sc1ccc(N2C(=O)C=CC2=O)cc1` [Compound 390, 1-(4-(5-methyl-2-(4-morpholinophenylao)pyrimidin-4-ylthio)phenyl)-1H-pyrrole-2,5-dione], the GI50 in test [1] and in test [3] was < 5 µM each time. In test [2], the IC50 was < 5 µM.

Source of the values: US8846704B2, “Thiopyrimidine-based compounds and uses thereof” (YM Biosciences Austraila Pty Ltd, priority 2007, dated 2014).
